Converted amounts (≈) assume the structure as drawn. Structures can show the parent of a compound that is named as a salt.
Tests used:
[1] = tested on: vancomycin resistant Enterococci (VRE); assay: Assay for in vitro antibacterial activity, agar dilution (VRE); settings: Enterococcus, read-out: Minimum Inhibitory Concentration (MIC50) VRE
[2] = tested on: methicillin resistant Staphylococcus aureus (MRSA); assay: Assay for in vitro antibacterial activity, agar dilution (MRSA); settings: read-out: Minimum Inhibitory Concentration (MIC50) MRSA
[3] = Assay for solubility in distilled water (turbidity by naked eye); assay type: physicochemical; settings: average of three runs; for solubility at 2 min: thermodynamic from solid
Description: The derivatives of the present invention were added to 200 μl of distilled water and then the solution was stirred for 2 minutes. The turbidity of the solution was watched through naked eye.
When the derivatives were not dissolved completely, 50 μl of distilled water was added to the solution and then the turbidity of the solution was assayed in the above manner to find a point of becoming transparent solution.
When 2 mg of the derivatives was first added to distilled water and completely dissolved so that the solution became transparent, 2 mg of the derivatives was added more to the solution and then state of the solution was watched. The derivatives of the present invention were added to the five times and then solubility of the solution was assayed for. The assay for solubility was carried out the three times repeatedly in the above method and the results were averaged.

Compound	MIC50 [1] [µg/mL]	MIC50 [2] [µg/mL]	solubility at 2 min [3] [µg/mL]	other results
Cn1nnc(-c2ccc(-c3ccc(N4C[C@H](COC(=O)CCN)OC4=O)cc3F)cn2)n1 [Compound 49, (R)-3-(4-(2-(2-methyltetrazol-5-yl)pyridin-5-yl)-3-fluorophenyl)-5-(β-alanyloxy)methyl oxazolidin-2-one trifluoroacetic acid]	0.25 (≈ 0.566 µM)	0.5 (≈ 1.13 µM)		Solubility ([3]; trifluoroacetic acid): 2600 µg/mL (≈ 5890 µM)
CC(C)[C@H](N)C(=O)OC[C@H]1CN(c2ccc(-c3ccc(-c4nnn(C)n4)nc3)c(F)c2)C(=O)O1.Cl [Compound 43, (R)-3-(4-(2-(2-methyltetrazol-5-yl)pyridin-5-yl)-3-fluorophenyl)-5-(L-valyloxy)methyl oxazolidin-2-one hydrochloride]	0.25	0.5		Solubility [3]: 4200 µg/mL
Cn1nnnc1-c1ccc(-c2ccc(N3C[C@H](COC(=O)CN)OC3=O)cc2F)cn1 [Compound 62, (R)-3-(4-(2-(1-methyltetrazol-5-yl)pyridin-5-yl)-3-fluorophenyl)-5-glycyloxymethyl oxazolidin-2-one trifluoroacetic acid]			28000 (≈ 65500 µM)	
CC(C)[C@H](N)C(=O)OC[C@H]1CN(c2ccc(-c3ccc(-c4nnnn4C)nc3)c(F)c2)C(=O)O1 [Compound 66, (R)-3-(4-(2-(1-methyltetrazol-5-yl)pyridin-5-yl)-3-fluorophenyl)-5-(L-valyloxy)methyl oxazolidin-2-one trifluoroacetic acid]			4700 (≈ 10000 µM)	
Cc1nnc(-c2ccc(-c3ccc(N4C[C@H](COP(=O)([O][Na+])[O][Na+])OC4=O)cc3F)cn2)o1 [Compound 60, (R)-[3-(4-(2-(2-methyl-[1,3,4]oxadiazol-5-yl)pyridin-5-yl)-3-fluorophenyl)-2-oxo-5-oxazolidinyl]methyl disodiumphosphate]	1	0.5	> 50000	
Cc1nnc(-c2ccc(-c3ccc(N4C[C@H](COC(=O)CCN)OC4=O)cc3F)cn2)o1.Cl [Compound 58, (R)-3-(4-(2-(2-methyl-[1,3,4]oxadiazol-5-yl)pyridin-5-yl)-3-fluorophenyl)-5-(β-alanyloxy)methyl oxazolidin-2-one hydrochloride]	1	0.5	5500	
Cc1nnc(-c2ccc(-c3ccc(N4C[C@H](COC(=O)[C@H](C)N)OC4=O)cc3F)cn2)o1 [Compound 51, (R)-3-(4-(2-(2-methyl-[1,3,4]oxadiazol-5-yl)pyridin-5-yl)-3-fluorophenyl)-5-(L-alanyloxy)methyl oxazolidin-2-one trifluoroacetic acid]			> 50000	
C[C@H](N)C(=O)OC[C@H]1CN(c2ccc(-c3ccc(-c4nnn(C)n4)nc3)c(F)c2)C(=O)O1.Cl [Compound 44, (R)-3-(4-(2-(2-methyltetrazol-5-yl)pyridin-5-yl)-3-fluorophenyl)-5-(L-alanyloxy)methyl oxazolidin-2-one hydrochloride]	0.25	0.5	> 50000	
Cc1nnc(-c2ccc(-c3ccc(N4C[C@H](COC(=O)CCN)OC4=O)cc3F)cn2)o1 [Compound 57, (R)-3-(4-(2-(2-methyl-[1,3,4]oxadiazol-5-yl)pyridin-5-yl)-3-fluorophenyl)-5-(β-alanyloxy)methyl oxazolidin-2-one trifluoroacetic acid]			> 50000	
Cc1nnc(-c2ccc(-c3ccc(N4C[C@H](COC(=O)[C@@H](N)C(C)C)OC4=O)cc3F)cn2)o1.Cl [Compound 54, (R)-3-(4-(2-(2-methyl-[1,3,4]oxadiazol-5-yl)pyridin-5-yl)-3-fluorophenyl)-5-(L-valyloxy)methyl oxazolidin-2-one hydrochloride]	1	0.5	2900	
Cn1nnnc1-c1ccc(-c2ccc(N3C[C@H](COC(=O)CCN)OC3=O)cc2F)cn1 [Compound 68, (R)-3-(4-(2-(1-methyltetrazol-5-yl)pyridin-5-yl)-3-fluorophenyl)-5-(β-alanyloxy)methyl oxazolidin-2-one trifluoroacetic acid]			2600 (≈ 5890 µM)	
Cc1nnc(-c2ccc(-c3ccc(N4C[C@H](COC(=O)[C@@H](N)C(C)C)OC4=O)cc3F)cn2)o1 [Compound 53, (R)-3-(4-(2-(2-methyl-[1,3,4]oxadiazol-5-yl)pyridin-5-yl)-3-fluorophenyl)-5-(L-valyloxy)methyl oxazolidin-2-one trifluoroacetic acid]			30300 (≈ 64500 µM)	
C[C@H](N)C(=O)OC[C@H]1CN(c2ccc(-c3ccc(-c4nnn(C)n4)nc3)c(F)c2)C(=O)O1 [Compound 42, (R)-3-(4-(2-(2-methyltetrazol-5-yl)pyridin-5-yl)-3-fluorophenyl)-5-(L-alanyloxy)methyl oxazolidin-2-one trifluoroacetic acid]				Solubility ([3]; listed as compound 42, trifluoroacetic acid): > 50000 µg/mL; Solubility ([3]; trifluoroacetic acid): >50000 µg/mL
Cc1nnc(-c2ccc(-c3ccc(N4C[C@H](COC(=O)[C@@H]5CCCN5)OC4=O)cc3F)cn2)o1 [Compound 55, (R)-3-(4-(2-(2-methyl-[1,3,4]oxadiazol-5-yl)pyridin-5-yl)-3-fluorophenyl)-5-(L-prolinyloxy)methyl oxazolidin-2-one trifluoroacetic acid]			7200 (≈ 15400 µM)	
CC(=O)NC[C@H]1CN(c2ccc(-c3ccc(-n4nccn4)nc3)c(F)c2)C(=O)O1 [Compound 25, (S)-3-(4-(2-([1,2,3]triazol-2-yl)pyridin-5-yl)-3-fluorophenyl)-2-oxo-5-oxazolidinylmethyl acetamide]	0.125 (≈ 0.315 µM)	0.25 (≈ 0.631 µM)		
Cn1nnnc1-c1ccc(-c2ccc(N3C[C@H](COP(=O)(O)O)OC3=O)cc2F)cn1 [Compound 73, mono-[(R)-[3-(4-(2-(1-methyltetrazol-5-yl)pyridin-5-yl)-3-fluorophenyl)-2-oxo-5-oxazolidinyl]methyl]phosphate]	32 (≈ 71.1 µM)	32 (≈ 71.1 µM)		
CC(=O)NC[C@H]1CN(c2ccc(-c3ccc(-c4nc(C)c(C)o4)cc3)c(F)c2)C(=O)O1 [Compound 11, (S)-3-(4-(4-(4,5-dimethyloxazol-2-yl)phenyl)-3-fluorophenyl)-2-oxo-5-oxazolidinylmethyl acetamide]	0.25 (≈ 0.59 µM)	0.5 (≈ 1.18 µM)		
Cn1nnc(-c2ccc(-c3ccc(N4C[C@H](Cn5cncn5)OC4=O)cc3F)cn2)n1 [Compound 4, (R)-3-(4-(2-(2-methyltetrazol-5-yl)pyridin-5-yl)-3-fluorophenyl)-5-([1,2,4]triazol-1-yl)methyl oxazolidin-2-one]	2 (≈ 4.75 µM)	2 (≈ 4.75 µM)		
CC(=O)NC[C@H]1CN(c2ccc(-c3ccc(-c4nc(C)c(C)o4)nc3)c(F)c2)C(=O)O1 [Compound 15]	1 (≈ 2.36 µM)	1 (≈ 2.36 µM)		
Cl.Cn1nnnc1-c1ccc(-c2ccc(N3C[C@H](COC(=O)CCN)OC3=O)cc2F)cn1 [Compound 69, (R)-3-(4-(2-(1-methyltetrazol-5-yl)pyridin-5-yl)-3-fluorophenyl)-5-(β-alanyloxy)methyl oxazolidin-2-one hydrochloride]	0.25	0.5		
Cn1nnc(-c2ccc(-c3ccc(N4C[C@H](COC(=O)[C@@H]5CCCN5)OC4=O)cc3F)cn2)n1 [Compound 46, (R)-3-(4-(2-(2-methyltetrazol-5-yl)pyridin-5-yl)-3-fluorophenyl)-5-(L-prolinyloxy)methyl oxazolidin-2-one trifluoroacetic acid]			< 1630	
C[C@H](N)C(=O)OC[C@H]1CN(c2ccc(-c3ccc(-c4nnnn4C)nc3)c(F)c2)C(=O)O1 [Compound 64, (R)-3-(4-(2-(1-methyltetrazol-5-yl)pyridin-5-yl)-3-fluorophenyl)-5-(L-alanyloxy)methyl oxazolidin-2-one trifluoroacetic acid]			> 50000	
C[C@H](N)C(=O)OC[C@H]1CN(c2ccc(-c3ccc(-c4nnnn4C)nc3)c(F)c2)C(=O)O1.Cl [Compound 65, (R)-3-(4-(2-(1-methyltetrazol-5-yl)pyridin-5-yl)-3-fluorophenyl)-5-(L-alanyloxy)methyl oxazolidin-2-one hydrochloride]	0.25	0.5		
Cl.NC[C@H]1CN(c2ccc(-c3ccc(-n4ccnc4)nc3)c(F)c2)C(=O)O1 [Compound 19, (S)-3-(4-(2-(imidazole-1-yl)pyridin-5-yl)-3-fluorophenyl)-5-aminomethyl oxazolidin-2-one hydrochloride]	32	32		
Cn1nnnc1-c1ccc(-c2ccc(N3C[C@H](CO)OC3=O)cc2F)cn1 [Compound 61, (R)-3-(4-(2-(1-methyltetrazol-5-yl)pyridin-5-yl)-3-fluorophenyl)-5-hydroxymethyl oxazolidin-2-one]	0.25 (≈ 0.675 µM)	0.5 (≈ 1.35 µM)		
CC(=O)NC[C@H]1CN(c2ccc(-c3ccc(-c4nc(CO)cs4)cc3)c(F)c2)C(=O)O1 [Compound 28, (S)-3-(4-(4-(4-hydroxymethylthiazol-2-yl)phenyl)-3-fluorophenyl)-2-oxo-5-oxazolidinylmethyl acetamide]	0.5 (≈ 1.13 µM)	0.5 (≈ 1.13 µM)		
Cn1nnc(-c2ccc(-c3ccc(N4C[C@H](COC(=O)CCN)OC4=O)cc3F)cn2)n1 [Compound 50, (R)-3-(4-(2-(2-methyltetrazol-5-yl)pyridin-5-yl)-3-fluorophenyl)-5-(β-alanyloxy)methyl oxazolidin-2-one hydrochloride]				Solubility ([3]; hydrochloride): 20400 µg/mL
